Source: patent publication US20200325140A1, “FUSED BICYCLIC COMPOUNDS FOR THE TREATMENT OF DISEASE” (Akarna Therapeutics, Ltd., priority 2016, published 2020)

Target: T1, FXR (Homo sapiens, UniProt Q96RI1)
T1 sequence (Q96RI1 1-486): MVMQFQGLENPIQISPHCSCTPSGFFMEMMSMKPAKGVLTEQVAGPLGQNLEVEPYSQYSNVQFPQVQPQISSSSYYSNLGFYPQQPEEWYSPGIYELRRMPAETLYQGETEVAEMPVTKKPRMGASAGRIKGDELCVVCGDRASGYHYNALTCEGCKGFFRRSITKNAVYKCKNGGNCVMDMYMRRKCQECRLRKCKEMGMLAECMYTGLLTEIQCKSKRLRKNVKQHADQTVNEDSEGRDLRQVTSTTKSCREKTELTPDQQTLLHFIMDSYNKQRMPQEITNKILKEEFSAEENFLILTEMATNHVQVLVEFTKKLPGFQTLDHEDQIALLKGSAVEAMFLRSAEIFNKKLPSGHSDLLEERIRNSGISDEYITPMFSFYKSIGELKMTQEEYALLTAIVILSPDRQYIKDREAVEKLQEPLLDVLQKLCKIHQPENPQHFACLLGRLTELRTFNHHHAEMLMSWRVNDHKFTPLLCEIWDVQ
Experiment: FXR Agonist Assay (Gaussia luciferase reporter in cells)
Format: cell-based
Conditions: 20 hours incubation, 10-point dilution, duplicate
Procedure: Starting from 3.33 mM of compound in DMSO solution, a 10-point 3-fold serial dilution was made by diluting 5 μL of compound into 10 μL of DMSO. The serially diluted compound was then diluted 1:33 into DMEM. This medium was then diluted ten-fold into the culture medium with the cells (10 μL/well). All concentration points are assayed in duplicate. Plates were incubated at 37° C. for 20 hours. After the incubation, 20 μL of culture medium were removed from each well and mixed with 50 μL of assay solution (Pierce™ Gaussia Luciferase Flash Assay Kit). The luminescence was measured immediately after addition of the Luc substrate with an Envision microplate reader. The raw data was uploaded to CDD and dose-response curves were generated using the Levenberg-Marquardt algorithm integrated into CDD. A negative control DMSO is included on each plate and used to normalize the data with the CDD built-in normalization function.

SMILES | EC50
CC(C)OC(=O)C1=CN(C(=O)c2ccc(OCCN(C)C)cc2)CC(C)(C)c2c(C(F)(F)F)n[nH]c21 [Compound 1, (E)-isopropyl 6-(4-(2-(dimethylamino)ethoxy)benzoyl)-4,4-dimethyl-3-(trifluoromethyl)-1,4,5,6-tetrahydropyrazolo[3,4-d]azepine-8-carboxylate] | 200 to 1000 nM
CC(C)OC(=O)C1=CN(C(=O)c2ccc(OCCn3ccnc3)cc2)CC(C)(C)c2c(C(F)(F)F)n[nH]c21 [Compound 2, (E)-isopropyl 6-(4-(2-(1H-imidazol-1-yl)ethoxy)benzoyl)-4,4-dimethyl-3-(trifluoromethyl)-1,4,5,6-tetrahydropyrazolo[3,4-d]azepine-8-carboxylate] | < 200 nM
CC(C)OC(=O)C1=CN(C(=O)c2ccc(OCCN3CCN(C)CC3)cc2)CC(C)(C)c2c(C(F)(F)F)n[nH]c21 [Compound 3, (E)-isopropyl 4,4-dimethyl-6-(4-(2-(4-methylpiperazin-1-yl)ethoxy)benzoyl)-3-(trifluoromethyl)-1,4,5,6-tetrahydropyrazolo[3,4-d]azepine-8-carboxylate] | 200 to 1000 nM
CC(C)OC(=O)C1=CN(C(=O)c2ccc(OCCN3CCCC3)cc2)CC(C)(C)c2c(C(F)(F)F)n[nH]c21 [Compound 4, (E)-isopropyl 4,4-dimethyl-6-(4-(2-(pyrrolidin-1-yl)ethoxy)benzoyl)-3-(trifluoromethyl)-1,4,5,6-tetrahydropyrazolo[3,4-d]azepine-8-carboxylate] | 1000 to 10000 nM
CC(C)OC(=O)C1=CN(C(=O)c2cc(F)c(OCCN3CCOCC3)c(F)c2)CC(C)(C)c2c(C(F)(F)F)n[nH]c21 [Compound 5, (E)-isopropyl 6-(3,5-difluoro-4-(2-morpholinoethoxy)benzoyl)-4,4-dimethyl-3-(trifluoromethyl)-1,4,5,6-tetrahydropyrazolo[3,4-d]azepine-8-carboxylate] | < 200 nM
